Results on one molecule are retold here after publication PMC12030301, “Caffeic Acid Phenethyl Ester (CAPE) Inhibits Arginase Activity and Growth of Leishmania amazonensis Promastigotes and Intracellular Amastigotes” (Pathogens, 2025).

The test addresses T1, arginase.
T1 construct: purified recombinant arginase
The test is described as follows: enzyme inhibition kinetics with purified recombinant arginase; Dixon and Cornish-Bowden plots (IC50 […]). In kind it is biochemical, Leishmania amazonensis.

A word on the Ki: it is a dissociation constant, usually derived from enzyme kinetics or from competition with a known ligand.

Regarding `O=C(/C=C/c1ccc(O)c(O)c1)OCCc1ccccc1` [CAPE, Caffeic acid phenethyl ester], the inhibitory constant (Ki) was determined as 1510 ± 40 nM.
